Calls of active or inactive are those of the source. How the calls were made is not given here.
These compounds were tested on S. cerevisiae tim10-1 mutant, luminescence counterscreen (assay: tim10-1 yeast luminescent signal inhibition – luminescence, S. cerevisiae, uHTS hits, counter-screen for tim23-1 inhibitor project, dose response (AID 504657)).

Question: With `O=C(/C=C/c1ccccc1Cl)Nc1ccccc1` as the compound, how does the IC50 read?
Answer: The IC50 was > 100 µM (inactive).

Question: For `O=C1OC(c2ccccc2)=N/C1=C\C=C\c1ccco1`, which IC50 is on record?
Answer: The IC50 was > 100 µM (inactive).

Question: `O=C(Nc1nc2ccccc2s1)C1CCCN1S(=O)(=O)c1ccc(Cl)cc1` (stereo not given) was tested. Which IC50 did it give?
Answer: The IC50 was > 100 µM (inactive).

Question: `CN(C)/C=C1/C=C(c2ccccc2)OC1=O` was tested. Which IC50 did it give?
Answer: Its IC50 is 94.1 µM.

Question: With `O=C(Nc1ccc(-c2cn3ccccc3n2)cc1)c1cccs1` as the compound, how does the IC50 read?
Answer: The IC50 was > 100 µM (inactive).

Question: With `Cc1cc2cc(CNC(=O)c3ccc(C)c([N+](=O)[O-])c3)ccc2[nH]1` as the compound, how does the IC50 read?
Answer: Its IC50 is > 100 µM (inactive).

Question: How did the IC50 turn out when `C=C1CCc2c([nH]c3ccc(OCC(C)C)cc23)C1=O` was run?
Answer: Its IC50 is > 100 µM (inactive).

Question: `COc1ccc(/C=C/C(=O)Nc2ccc3c(c2)CCC3)cc1OC` was tested. Which IC50 did it give?
Answer: Its IC50 is > 100 µM (inactive).

Question: For `Cc1cc(C)nc(SCC(=O)c2cc3ccccc3oc2=O)n1`, which IC50 is on record?
Answer: Its IC50 is > 100 µM (inactive).

Question: With `Cc1nc2scc(C)n2c(=O)c1S(=O)(=O)Nc1ccc(OC(F)(F)F)cc1` as the compound, how does the IC50 read?
Answer: The IC50 was > 100 µM (inactive).

Question: With `CCOC(=O)c1sc(=NC(=O)c2ccco2)n(C)c1C` as the compound, how does the IC50 read?
Answer: Its IC50 is > 100 µM (inactive).

Question: Which IC50 does the source give for `O=C(CSc1cccc[n+]1[O-])Nc1ccccc1Oc1ccccc1` here?
Answer: The IC50 was > 100 µM (inactive).

Question: With `Cc1ccc(CS(=O)(=O)c2ncc(Cl)c(C(=O)Nc3ccc(OC(F)F)cc3)n2)cc1` as the compound, how does the IC50 read?
Answer: The IC50 was > 100 µM (inactive).

Question: Which IC50 does the source give for `CC(C)Cn1cnc2c(c(-c3ccccc3)c(-c3ccccc3)n2Cc2ccco2)c1=N` here?
Answer: The IC50 was > 100 µM (inactive).

Question: Which IC50 does the source give for `C(=C\c1ccccc1)/C=N/Nc1nc2ccccc2[nH]1` here?
Answer: Its IC50 is > 100 µM (inactive).

Question: `O=C(Nc1ccc2nc(-c3ccc(Br)o3)[nH]c2c1)c1cccs1` was tested. Which IC50 did it give?
Answer: The IC50 was > 100 µM (inactive).

Question: For `N#Cc1c(-c2ccccc2)cc(-c2ccc(O)cc2)nc1N`, which IC50 is on record?
Answer: The IC50 was > 100 µM (inactive).

Question: Which IC50 does the source give for `Cc1ccc(Nc2nc(-c3cccnc3)nc3ccccc23)cc1` here?
Answer: Its IC50 is > 100 µM (inactive).

Question: Which IC50 does the source give for `Oc1ccc(Oc2ccc(Oc3ccc(O)cc3)cc2)cc1` here?
Answer: The IC50 was > 100 µM (inactive).

Question: Which IC50 does the source give for `O=C(N/N=C/c1coc2ccc(Cl)cc2c1=O)c1cc(O)cc(O)c1` here?
Answer: The IC50 was > 100 µM (inactive).

Question: Which IC50 does the source give for `O=C(Nc1ccc(-c2cn3c(n2)SCC3)cc1)c1ccco1` here?
Answer: The IC50 was > 100 µM (inactive).

Question: `Cc1ccc2[nH]cc(C(=O)CCl)c2c1` was tested. Which IC50 did it give?
Answer: Its IC50 is > 100 µM (inactive).

Question: `Cc1nc2scc(C)n2c(=O)c1S(=O)(=O)Nc1ccc(N2CCOCC2)cc1` was tested. Which IC50 did it give?
Answer: Its IC50 is > 100 µM (inactive).

Question: For `O=C(N/N=C/c1coc2ccc(Cl)cc2c1=O)c1ccncc1`, which IC50 is on record?
Answer: The IC50 was > 100 µM (inactive).

Question: For `O=C(Nc1cc(-c2ccccc2)[nH]n1)c1ccccc1`, which IC50 is on record?
Answer: Its IC50 is > 100 µM (inactive).

Question: With `CCOC(=O)c1ccc(NC(=O)CSc2nc(=O)n3cccc(C)c3n2)cc1` as the compound, how does the IC50 read?
Answer: Its IC50 is > 100 µM (inactive).

Question: With `Oc1ccccc1C1NN=C(c2ccccc2)S1` (stereo not given) as the compound, how does the IC50 read?
Answer: Its IC50 is > 100 µM (inactive).

Question: For `O=c1c(O)c(-c2ccccc2)oc2cc(O)cc(O)c12`, which IC50 is on record?
Answer: Its IC50 is > 100 µM (inactive).

Question: Which IC50 does the source give for `CCCCn1c(N)c(N(CCC(C)C)C(=O)c2ccc3c(c2)OCO3)c(=O)[nH]c1=O` here?
Answer: The IC50 was > 100 µM (inactive).

Question: How did the IC50 turn out when `CCN(CC)S(=O)(=O)c1ccc(C(=O)OCn2nnc3ccccc3c2=O)cc1` was run?
Answer: Its IC50 is > 100 µM (inactive).

Question: For `CCOC(=O)c1cccnc1SCc1cc(=O)n2ccccc2n1`, which IC50 is on record?
Answer: Its IC50 is > 100 µM (inactive).

Question: Which IC50 does the source give for `CC(C)OC(=O)c1cccnc1SCc1cc(=O)n2ccccc2n1` here?
Answer: The IC50 was > 100 µM (inactive).

Question: With `N#C/C(=C\c1ccc(Cl)cc1)C(=O)Nc1cccnc1` as the compound, how does the IC50 read?
Answer: Its IC50 is > 100 µM (inactive).

Question: With `CC(C)(C)c1csc(NC(=O)c2ccc(Cl)s2)n1` as the compound, how does the IC50 read?
Answer: The IC50 was > 100 µM (inactive).

Question: For `N#C/C(=C/c1ccc(N2CCOCC2)o1)c1nc2ccccc2[nH]1`, which IC50 is on record?
Answer: Its IC50 is > 100 µM (inactive).

Question: Which IC50 does the source give for `O=C(N/N=C/C=C\c1ccco1)c1cccs1` here?
Answer: The IC50 was > 100 µM (inactive).

Question: Which IC50 does the source give for `Cc1ccc2nc(N3C(=O)CNC3=S)sc2c1` here?
Answer: Its IC50 is > 100 µM (inactive).

Question: Which IC50 does the source give for `CN1CCc2nc3sc(C(=O)C45CC6CC(CC(C6)C4)C5)c(N)c3cc2C1` here?
Answer: Its IC50 is > 100 µM (inactive).

Question: How did the IC50 turn out when `COc1cc2c(cc1OC)/C(=C/c1ccc(Cl)cc1)C(=O)OC2` was run?
Answer: The IC50 was > 100 µM (inactive).

Question: For `CSc1nnc(C(C)(C)C)c(=O)n1/N=C/c1ccccc1`, which IC50 is on record?
Answer: Its IC50 is > 100 µM (inactive).

Question: For `O=C(N/N=C/C(Cl)=C\c1ccccc1)c1cccs1`, which IC50 is on record?
Answer: The IC50 was > 100 µM (inactive).

Question: `CCn1c(N2CCN(S(=O)(=O)c3ccc(OC)cc3)CC2)nc2ccccc21` was tested. Which IC50 did it give?
Answer: The IC50 was > 100 µM (inactive).

Question: With `CCCN(C(=O)c1ccc([N+](=O)[O-])c(C)c1)c1c(N)n(Cc2ccccc2)c(=O)[nH]c1=O` as the compound, how does the IC50 read?
Answer: The IC50 was > 100 µM (inactive).

Question: How did the IC50 turn out when `O=c1oc(Cl)c(Cl)c2ccccc12` was run?
Answer: Its IC50 is > 100 µM (inactive).

Question: `COc1ccc(C(=O)N/N=C\c2coc3ccc(Cl)cc3c2=O)cc1` was tested. Which IC50 did it give?
Answer: Its IC50 is > 100 µM (inactive).

Question: With `CO/C(N)=C(\C#N)N=Cc1ccccc1Cl` as the compound, how does the IC50 read?
Answer: The IC50 was > 100 µM (inactive).

Question: How did the IC50 turn out when `Cc1ccc(-c2nn(-c3ccccc3)cc2NC(=O)CCl)cc1` was run?
Answer: The IC50 was > 100 µM (inactive).

Question: With `O=c1cc(C(Cl)(Cl)Cl)oc2c1ccc1ccccc12` as the compound, how does the IC50 read?
Answer: Its IC50 is > 100 µM (inactive).

Question: `COc1ccc2c(c1)sc1nc(-c3ccccc3)cn12` was tested. Which IC50 did it give?
Answer: Its IC50 is > 100 µM (inactive).

Question: Which IC50 does the source give for `Cc1nc2ccc(C(C(F)(F)F)(C(F)(F)F)C(F)(F)F)cc2[nH]1` here?
Answer: The IC50 was > 100 µM (inactive).
